# Experimental data: ChEMBL document CHEMBL3991601, “The target landscape of clinical kinase drugs” (Science, 2017)
# Counter-ions that a name gives are not always drawn. Activity calls are given as the source filed them.
# Columns and labels:
# [1] = molecular target: Atypical kinase COQ8A, mitochondrial (Homo sapiens, UniProt Q8NI60)
# [2] = molecular target: Serine/threonine-protein kinase MRCK alpha (Homo sapiens, UniProt Q5VT25)
# [3] = molecular target: Casein kinase II subunit alpha' (Homo sapiens, UniProt P19784)
# Chain of Casein kinase II subunit alpha' (P19784 whole entry): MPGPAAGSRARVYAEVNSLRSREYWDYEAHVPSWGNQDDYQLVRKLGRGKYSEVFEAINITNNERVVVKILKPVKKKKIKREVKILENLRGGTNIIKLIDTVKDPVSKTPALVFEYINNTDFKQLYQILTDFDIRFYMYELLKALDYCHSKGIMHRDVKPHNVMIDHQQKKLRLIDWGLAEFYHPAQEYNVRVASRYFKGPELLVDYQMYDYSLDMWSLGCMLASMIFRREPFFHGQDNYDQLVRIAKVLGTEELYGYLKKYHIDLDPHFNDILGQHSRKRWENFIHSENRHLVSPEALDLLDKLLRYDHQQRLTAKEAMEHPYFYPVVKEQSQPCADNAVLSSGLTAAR
# [4] = molecular target: T1, Delta(24)-sterol reductase (Homo sapiens, UniProt Q15392)
# T1 sequence (Q15392 whole entry): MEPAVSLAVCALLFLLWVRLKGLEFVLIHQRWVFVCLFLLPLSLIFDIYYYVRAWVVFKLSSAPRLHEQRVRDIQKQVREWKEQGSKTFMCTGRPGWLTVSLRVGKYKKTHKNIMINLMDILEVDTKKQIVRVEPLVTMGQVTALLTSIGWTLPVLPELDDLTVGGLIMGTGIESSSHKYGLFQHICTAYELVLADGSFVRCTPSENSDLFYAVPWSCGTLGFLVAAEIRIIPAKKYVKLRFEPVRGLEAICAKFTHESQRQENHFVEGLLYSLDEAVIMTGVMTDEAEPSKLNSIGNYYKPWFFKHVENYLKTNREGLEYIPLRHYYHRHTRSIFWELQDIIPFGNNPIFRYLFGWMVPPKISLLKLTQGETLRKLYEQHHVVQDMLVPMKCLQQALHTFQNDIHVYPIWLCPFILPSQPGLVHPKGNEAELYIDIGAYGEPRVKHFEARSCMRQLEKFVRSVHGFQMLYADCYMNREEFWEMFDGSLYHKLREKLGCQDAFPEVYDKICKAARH
# [5] = molecular target: Maternal embryonic leucine zipper kinase (Homo sapiens, UniProt Q14680)
# Chain of Maternal embryonic leucine zipper kinase (Q14680 whole entry): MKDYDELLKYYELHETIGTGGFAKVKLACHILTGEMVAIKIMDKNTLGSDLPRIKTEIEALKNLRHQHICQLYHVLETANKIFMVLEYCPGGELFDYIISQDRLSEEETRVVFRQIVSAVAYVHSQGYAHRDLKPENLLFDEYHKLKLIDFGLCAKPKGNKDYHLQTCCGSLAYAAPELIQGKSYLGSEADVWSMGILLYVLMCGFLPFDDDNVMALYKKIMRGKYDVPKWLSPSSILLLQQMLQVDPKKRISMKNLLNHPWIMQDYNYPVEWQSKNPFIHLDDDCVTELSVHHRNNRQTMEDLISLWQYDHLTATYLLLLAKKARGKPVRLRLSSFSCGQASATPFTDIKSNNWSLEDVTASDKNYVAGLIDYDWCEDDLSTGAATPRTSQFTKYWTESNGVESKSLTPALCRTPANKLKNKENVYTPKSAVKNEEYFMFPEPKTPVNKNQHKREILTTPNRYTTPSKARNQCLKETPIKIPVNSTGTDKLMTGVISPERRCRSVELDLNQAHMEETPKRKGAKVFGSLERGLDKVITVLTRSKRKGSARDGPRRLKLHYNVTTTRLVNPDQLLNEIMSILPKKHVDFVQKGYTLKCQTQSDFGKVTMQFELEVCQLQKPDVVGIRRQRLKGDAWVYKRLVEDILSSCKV
# [6] = molecular target: NADH dehydrogenase [ubiquinone] 1 alpha subcomplex subunit 13 (Homo sapiens, UniProt Q9P0J0)
# Chain of NADH dehydrogenase [ubiquinone] 1 alpha subcomplex subunit 13 (Q9P0J0 whole entry, one chain of several): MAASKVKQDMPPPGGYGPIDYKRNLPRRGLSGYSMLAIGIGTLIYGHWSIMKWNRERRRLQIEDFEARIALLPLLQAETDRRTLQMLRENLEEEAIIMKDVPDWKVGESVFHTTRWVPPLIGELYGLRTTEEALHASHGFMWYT
# [7] = molecular target: Serine/threonine-protein kinase PAK 4 (Homo sapiens, UniProt O96013)
# [8] = molecular target: Platelet-derived growth factor receptor beta (Homo sapiens, UniProt P09619)
# Chain of Platelet-derived growth factor receptor beta (P09619 whole entry): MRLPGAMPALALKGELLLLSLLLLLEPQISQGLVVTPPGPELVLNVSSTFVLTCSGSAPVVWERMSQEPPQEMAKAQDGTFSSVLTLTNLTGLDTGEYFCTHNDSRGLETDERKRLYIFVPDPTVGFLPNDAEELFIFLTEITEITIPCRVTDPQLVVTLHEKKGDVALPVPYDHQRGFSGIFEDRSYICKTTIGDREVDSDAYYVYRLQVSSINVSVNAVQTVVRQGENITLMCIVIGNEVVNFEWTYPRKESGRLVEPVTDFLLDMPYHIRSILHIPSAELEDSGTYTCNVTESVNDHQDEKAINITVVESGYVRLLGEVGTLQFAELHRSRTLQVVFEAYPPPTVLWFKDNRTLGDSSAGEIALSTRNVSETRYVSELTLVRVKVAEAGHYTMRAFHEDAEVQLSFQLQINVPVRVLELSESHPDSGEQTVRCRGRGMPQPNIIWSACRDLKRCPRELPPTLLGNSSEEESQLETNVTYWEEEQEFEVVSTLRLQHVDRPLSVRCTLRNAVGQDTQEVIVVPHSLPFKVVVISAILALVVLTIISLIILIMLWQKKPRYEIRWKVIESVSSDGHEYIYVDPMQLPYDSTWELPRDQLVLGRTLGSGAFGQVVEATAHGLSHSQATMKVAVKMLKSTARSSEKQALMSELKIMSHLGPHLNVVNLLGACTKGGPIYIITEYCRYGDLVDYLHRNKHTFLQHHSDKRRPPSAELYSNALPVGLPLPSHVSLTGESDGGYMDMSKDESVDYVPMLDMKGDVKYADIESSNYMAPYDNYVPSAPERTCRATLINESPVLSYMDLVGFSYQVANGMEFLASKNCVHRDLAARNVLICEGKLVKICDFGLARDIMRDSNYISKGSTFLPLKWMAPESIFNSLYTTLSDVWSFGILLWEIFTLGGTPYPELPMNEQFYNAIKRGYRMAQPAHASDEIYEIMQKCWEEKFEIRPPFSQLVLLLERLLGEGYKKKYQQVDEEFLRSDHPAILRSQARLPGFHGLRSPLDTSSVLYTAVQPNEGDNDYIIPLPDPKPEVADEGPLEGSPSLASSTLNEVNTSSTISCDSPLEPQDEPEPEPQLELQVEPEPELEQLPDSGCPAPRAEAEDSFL
# [9] = molecular target: T2, ATP-dependent 6-phosphofructokinase, platelet type (Homo sapiens, UniProt Q01813)
# T2 sequence (Q01813 whole entry): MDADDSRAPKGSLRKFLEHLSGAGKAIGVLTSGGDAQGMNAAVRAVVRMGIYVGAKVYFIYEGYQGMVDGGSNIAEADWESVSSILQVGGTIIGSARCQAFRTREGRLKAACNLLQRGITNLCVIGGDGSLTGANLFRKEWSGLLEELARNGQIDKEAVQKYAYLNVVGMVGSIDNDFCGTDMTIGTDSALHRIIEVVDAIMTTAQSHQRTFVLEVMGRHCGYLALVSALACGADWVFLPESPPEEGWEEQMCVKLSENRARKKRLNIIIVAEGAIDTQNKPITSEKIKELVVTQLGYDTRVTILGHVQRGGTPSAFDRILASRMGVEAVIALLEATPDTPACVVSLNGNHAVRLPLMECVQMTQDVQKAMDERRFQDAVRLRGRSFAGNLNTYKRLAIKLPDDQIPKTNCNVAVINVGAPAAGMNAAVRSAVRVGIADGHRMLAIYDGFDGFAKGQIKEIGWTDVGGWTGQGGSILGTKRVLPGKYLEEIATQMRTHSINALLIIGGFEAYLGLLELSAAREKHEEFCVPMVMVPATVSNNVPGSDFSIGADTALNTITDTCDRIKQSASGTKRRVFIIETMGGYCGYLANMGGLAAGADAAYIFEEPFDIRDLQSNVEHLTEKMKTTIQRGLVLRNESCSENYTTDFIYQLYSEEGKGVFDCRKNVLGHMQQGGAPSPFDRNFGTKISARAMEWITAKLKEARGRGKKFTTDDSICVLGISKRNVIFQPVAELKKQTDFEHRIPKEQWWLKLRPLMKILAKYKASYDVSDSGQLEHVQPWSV
# [10] = molecular target: T3, Serine/threonine-protein kinase PLK4 (Homo sapiens, UniProt O00444)
# T3 sequence (O00444 whole entry): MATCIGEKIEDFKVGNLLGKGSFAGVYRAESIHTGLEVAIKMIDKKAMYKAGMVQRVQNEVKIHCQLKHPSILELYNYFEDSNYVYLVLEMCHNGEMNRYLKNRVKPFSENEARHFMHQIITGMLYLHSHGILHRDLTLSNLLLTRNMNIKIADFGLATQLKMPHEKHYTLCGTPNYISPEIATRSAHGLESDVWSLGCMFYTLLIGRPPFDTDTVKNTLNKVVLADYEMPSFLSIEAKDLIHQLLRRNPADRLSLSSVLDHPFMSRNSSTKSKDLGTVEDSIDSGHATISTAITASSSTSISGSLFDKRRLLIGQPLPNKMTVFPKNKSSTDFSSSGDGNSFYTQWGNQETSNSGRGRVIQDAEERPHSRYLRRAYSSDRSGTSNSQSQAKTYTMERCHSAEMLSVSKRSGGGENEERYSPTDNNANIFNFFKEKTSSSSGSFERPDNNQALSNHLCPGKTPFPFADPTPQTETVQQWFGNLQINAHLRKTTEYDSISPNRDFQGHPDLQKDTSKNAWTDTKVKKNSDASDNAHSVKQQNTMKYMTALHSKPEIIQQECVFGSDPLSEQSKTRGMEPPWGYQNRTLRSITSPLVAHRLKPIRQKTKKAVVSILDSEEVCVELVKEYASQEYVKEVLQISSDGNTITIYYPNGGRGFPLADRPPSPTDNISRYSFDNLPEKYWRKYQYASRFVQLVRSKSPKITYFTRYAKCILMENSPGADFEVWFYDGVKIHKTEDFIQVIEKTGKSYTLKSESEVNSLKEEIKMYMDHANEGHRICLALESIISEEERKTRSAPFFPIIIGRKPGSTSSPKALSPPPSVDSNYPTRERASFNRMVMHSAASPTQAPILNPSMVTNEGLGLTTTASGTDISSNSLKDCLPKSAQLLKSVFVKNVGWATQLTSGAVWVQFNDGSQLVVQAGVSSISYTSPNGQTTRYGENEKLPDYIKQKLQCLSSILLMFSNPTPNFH
# [11] = molecular target: cAMP-dependent protein kinase catalytic subunit beta (Homo sapiens, UniProt P22694)
# [12] = molecular target: U5 small nuclear ribonucleoprotein 200 kDa helicase (Homo sapiens, UniProt O75643)
# Chain of U5 small nuclear ribonucleoprotein 200 kDa helicase (O75643 whole entry): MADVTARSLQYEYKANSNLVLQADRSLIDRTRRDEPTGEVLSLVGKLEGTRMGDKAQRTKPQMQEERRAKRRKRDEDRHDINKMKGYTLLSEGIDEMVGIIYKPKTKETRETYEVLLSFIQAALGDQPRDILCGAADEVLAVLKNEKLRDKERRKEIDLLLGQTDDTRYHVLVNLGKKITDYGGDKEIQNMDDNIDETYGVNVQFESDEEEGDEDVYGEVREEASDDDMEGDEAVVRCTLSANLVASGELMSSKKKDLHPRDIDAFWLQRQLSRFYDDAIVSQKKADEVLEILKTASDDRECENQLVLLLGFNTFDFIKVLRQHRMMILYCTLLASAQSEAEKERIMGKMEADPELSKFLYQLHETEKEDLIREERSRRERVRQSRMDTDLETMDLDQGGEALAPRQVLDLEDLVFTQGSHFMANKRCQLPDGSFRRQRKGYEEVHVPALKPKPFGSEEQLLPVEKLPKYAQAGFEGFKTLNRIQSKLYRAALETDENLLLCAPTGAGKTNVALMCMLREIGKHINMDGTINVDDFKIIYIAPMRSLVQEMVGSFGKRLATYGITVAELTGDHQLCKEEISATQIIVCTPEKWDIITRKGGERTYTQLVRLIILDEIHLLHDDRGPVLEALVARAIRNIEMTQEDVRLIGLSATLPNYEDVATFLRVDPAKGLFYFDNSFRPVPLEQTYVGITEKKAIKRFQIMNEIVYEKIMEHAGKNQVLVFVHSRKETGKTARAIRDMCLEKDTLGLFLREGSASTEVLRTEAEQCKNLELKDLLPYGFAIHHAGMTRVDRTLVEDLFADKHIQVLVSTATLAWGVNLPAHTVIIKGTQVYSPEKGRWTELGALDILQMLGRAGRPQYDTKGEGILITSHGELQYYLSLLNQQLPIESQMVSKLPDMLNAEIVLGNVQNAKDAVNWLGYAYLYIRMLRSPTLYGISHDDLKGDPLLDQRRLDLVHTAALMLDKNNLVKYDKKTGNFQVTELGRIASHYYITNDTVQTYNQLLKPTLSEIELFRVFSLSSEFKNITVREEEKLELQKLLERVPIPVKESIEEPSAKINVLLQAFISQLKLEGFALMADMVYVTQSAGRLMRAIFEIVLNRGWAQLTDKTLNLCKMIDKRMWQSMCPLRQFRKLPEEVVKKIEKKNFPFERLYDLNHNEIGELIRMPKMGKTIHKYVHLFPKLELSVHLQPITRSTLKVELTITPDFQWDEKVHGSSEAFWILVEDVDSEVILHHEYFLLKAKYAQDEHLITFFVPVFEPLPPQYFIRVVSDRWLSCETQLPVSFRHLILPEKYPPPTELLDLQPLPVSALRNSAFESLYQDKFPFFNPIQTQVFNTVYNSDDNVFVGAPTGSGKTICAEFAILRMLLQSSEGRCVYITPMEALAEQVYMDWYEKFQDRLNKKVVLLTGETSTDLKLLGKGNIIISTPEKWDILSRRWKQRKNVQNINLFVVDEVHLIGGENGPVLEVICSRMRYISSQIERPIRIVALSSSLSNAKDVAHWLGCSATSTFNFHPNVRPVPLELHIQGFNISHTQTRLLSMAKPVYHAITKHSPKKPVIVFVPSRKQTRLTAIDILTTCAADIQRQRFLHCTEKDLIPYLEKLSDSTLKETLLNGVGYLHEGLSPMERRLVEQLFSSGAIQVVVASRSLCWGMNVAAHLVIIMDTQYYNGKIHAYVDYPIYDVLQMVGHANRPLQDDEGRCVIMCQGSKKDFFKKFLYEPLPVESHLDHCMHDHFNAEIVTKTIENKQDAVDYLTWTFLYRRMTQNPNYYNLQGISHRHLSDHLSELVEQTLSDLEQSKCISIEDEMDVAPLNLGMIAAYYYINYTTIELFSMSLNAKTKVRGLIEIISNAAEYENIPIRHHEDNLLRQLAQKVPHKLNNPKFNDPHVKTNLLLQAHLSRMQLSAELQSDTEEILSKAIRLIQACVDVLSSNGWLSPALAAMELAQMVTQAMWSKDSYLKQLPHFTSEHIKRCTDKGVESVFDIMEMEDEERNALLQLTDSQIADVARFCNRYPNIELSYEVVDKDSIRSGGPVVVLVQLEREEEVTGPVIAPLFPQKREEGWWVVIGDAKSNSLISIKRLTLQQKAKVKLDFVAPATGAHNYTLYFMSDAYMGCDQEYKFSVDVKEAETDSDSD
# DNA topoisomerase 2-beta = DNA topoisomerase 2-beta (Homo sapiens, UniProt Q02880)
# Note: in the data inactive means no Kd found up to 30 µM.
# Chain of Atypical kinase COQ8A, mitochondrial (Q8NI60 whole entry): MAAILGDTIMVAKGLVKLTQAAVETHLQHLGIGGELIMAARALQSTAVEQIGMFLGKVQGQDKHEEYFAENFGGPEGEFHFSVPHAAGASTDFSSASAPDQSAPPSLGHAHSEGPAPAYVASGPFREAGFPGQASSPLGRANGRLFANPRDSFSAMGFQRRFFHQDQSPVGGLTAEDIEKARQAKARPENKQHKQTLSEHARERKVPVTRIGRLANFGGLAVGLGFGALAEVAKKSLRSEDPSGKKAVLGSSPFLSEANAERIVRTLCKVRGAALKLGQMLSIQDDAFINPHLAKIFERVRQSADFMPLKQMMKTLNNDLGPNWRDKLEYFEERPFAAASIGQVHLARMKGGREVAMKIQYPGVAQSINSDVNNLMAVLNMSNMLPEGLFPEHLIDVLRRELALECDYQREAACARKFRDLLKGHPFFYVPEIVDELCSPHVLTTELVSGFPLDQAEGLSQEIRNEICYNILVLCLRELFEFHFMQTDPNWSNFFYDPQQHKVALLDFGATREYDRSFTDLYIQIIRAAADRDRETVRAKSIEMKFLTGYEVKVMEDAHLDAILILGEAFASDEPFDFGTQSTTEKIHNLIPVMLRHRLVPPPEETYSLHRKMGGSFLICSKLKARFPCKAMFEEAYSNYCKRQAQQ
Compound,Kd [1],Kd [2],Kd [3],Kd [4],Kd [5],Kd [6],Kd [7],Kd [8],Kd [9],Kd [10],Kd [11],Kd [12],Kd (DNA topoisomerase 2-beta)
CCn1c(C(=O)N(C2CC2)C2CC2)cc2c3c(ncn3C)c(Nc3cc(C)n(C)n3)nc21 [BMS-911543],> 30 µM (inactive),> 30 µM (inactive),> 30 µM (inactive),> 30 µM (inactive),> 30 µM (inactive),> 30 µM (inactive),> 30 µM (inactive),> 30 µM (inactive),> 30 µM (inactive),> 30 µM (inactive),> 30 µM (inactive),> 30 µM (inactive),> 30 µM (inactive)
Cc1cc(Nc2ncc(Cl)c(Nc3ccccc3S(=O)(=O)C(C)C)n2)c(OC(C)C)cc1C1CCNCC1 [CERITINIB],> 30 µM (inactive),> 30 µM (inactive),> 30 µM (inactive),> 30 µM (inactive),> 30 µM (inactive),> 30 µM (inactive),> 30 µM (inactive),> 30 µM (inactive),> 30 µM (inactive),7.1 µM (active),> 30 µM (inactive),> 30 µM (inactive),> 30 µM (inactive)
COc1c(OCCCN2CCOCC2)ccc2c1N=C(NC(=O)c1cnc(N)nc1)N1CCN=C21 [COPANLISIB],> 30 µM (inactive),> 30 µM (inactive),> 30 µM (inactive),> 30 µM (inactive),> 30 µM (inactive),> 30 µM (inactive),> 30 µM (inactive),> 30 µM (inactive),> 30 µM (inactive),> 30 µM (inactive),> 30 µM (inactive),> 30 µM (inactive),> 30 µM (inactive)
COCC(=O)NC/C=C/c1ccc2ncnc(Nc3ccc(Oc4ccc(C)nc4)c(C)c3)c2c1 [CP-724714],> 30 µM (inactive),> 30 µM (inactive),> 30 µM (inactive),> 30 µM (inactive),> 30 µM (inactive),> 30 µM (inactive),> 30 µM (inactive),> 30 µM (inactive),> 30 µM (inactive),> 30 µM (inactive),> 30 µM (inactive),> 30 µM (inactive),> 30 µM (inactive)
CCS(=O)(=O)N1CCN(c2ccc(Nc3ncc(C(N)=O)c(NC4CC4)n3)cc2)CC1 [Cerdulatinib Hydrochloride],> 30 µM (inactive),> 30 µM (inactive),16.3 µM (active),> 30 µM (inactive),> 30 µM (inactive),> 30 µM (inactive),0.851 µM (active),0.203 µM (active),> 30 µM (inactive),> 30 µM (inactive),> 30 µM (inactive),> 30 µM (inactive),> 30 µM (inactive)
Cc1nc2cc(-n3ncc(C(=O)c4cc5ccccc5[nH]4)c3N)ccc2[nH]1 [FGFR INHIBITOR DEBIO 1347],> 30 µM (inactive),> 30 µM (inactive),> 30 µM (inactive),> 30 µM (inactive),> 30 µM (inactive),> 30 µM (inactive),> 30 µM (inactive),> 30 µM (inactive),> 30 µM (inactive),> 30 µM (inactive),> 30 µM (inactive),> 30 µM (inactive),> 30 µM (inactive)
O=C(Nc1nc2cccc(-c3ccc(CN4CCS(=O)(=O)CC4)cc3)n2n1)C1CC1 [FILGOTINIB],> 30 µM (inactive),> 30 µM (inactive),> 30 µM (inactive),> 30 µM (inactive),> 30 µM (inactive),> 30 µM (inactive),> 30 µM (inactive),> 30 µM (inactive),> 30 µM (inactive),> 30 µM (inactive),> 30 µM (inactive),> 30 µM (inactive),> 30 µM (inactive)
Cc1cccc(-c2nn3c(c2-c2ccnc4ccc(C(N)=O)cc24)CCC3)n1 [GALUNISERTIB],12.2 µM,> 30 µM (inactive),> 30 µM (inactive),> 30 µM (inactive),> 30 µM (inactive),> 30 µM (inactive),> 30 µM (inactive),> 30 µM (inactive),> 30 µM (inactive),> 30 µM (inactive),> 30 µM (inactive),> 30 µM (inactive),> 30 µM (inactive)
COc1ccc(S(=O)(=O)N(C(C)=O)c2ccccc2/C=C/c2cc[n+]([O-])cc2)cc1 [HMN-214],> 30 µM (inactive),> 30 µM (inactive),> 30 µM (inactive),> 30 µM (inactive),> 30 µM (inactive),> 30 µM (inactive),> 30 µM (inactive),> 30 µM (inactive),> 30 µM (inactive),> 30 µM (inactive),> 30 µM (inactive),> 30 µM (inactive),> 30 µM (inactive)
CNC(=O)c1cccc2cc(Oc3ccnc4cc(OCC5(N)CC5)c(OC)cc34)ccc12 [LUCITANIB],> 30 µM (inactive),> 30 µM (inactive),> 30 µM (inactive),> 30 µM (inactive),> 30 µM (inactive),> 30 µM (inactive),> 30 µM (inactive),0.278 µM,> 30 µM (inactive),> 30 µM (inactive),> 30 µM (inactive),> 30 µM (inactive),> 30 µM (inactive)
NC1(c2ccc(-c3nc4ccn5c(=O)[nH]nc5c4cc3-c3ccccc3)cc2)CCC1 [MK-2206],> 30 µM (inactive),> 30 µM (inactive),> 30 µM (inactive),> 30 µM (inactive),> 30 µM (inactive),> 30 µM (inactive),> 30 µM (inactive),> 30 µM (inactive),> 30 µM (inactive),> 30 µM (inactive),> 30 µM (inactive),> 30 µM (inactive),> 30 µM (inactive)
